Measured values as given in PubChem BioAssay (NCI).
Where “and” joins values, the source holds several entries; their conditions need not be identical. Identical values can stand only once.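 Protocol summary: plate cells (96-well), add compound at 5 concentrations, incubate 48 h, interpolate endpoints linearly. GI50: concentration for 50% inhibition of growth. Definition used: TGI = concentration required for complete inhibition of growth.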

Test system: MDA-MB-468 breast
Assay: NCI anticancer screen, dose series, 48 h

SMILES | GI50 | TGI
C#COc1cccc(Nc2c(C#N)cnc3ncc(NC(=O)CCl)cc23)c1 | 12.7 µM | 60.3 µM
Cc1[nH]c(/C=C2\C(=O)Nc3ccccc32)c(C)c1CCC(=O)O | 25.6 µM | 70 µM
Cc1cc(C)c(NC(=O)c2sc3nc4c(cc3c2N)CN(Cc2ccccc2)CC4)c(C)c1 | 1.78 µM | 88.7 µM
O=C1NC(=NCCc2cccc(Cl)c2)S/C1=C\c1ccc2ncccc2c1 | > 25 µM | > 25 µM
COc1ccc(-c2ccc(-c3ccc(C(=N)N)s3)s2)cc1 | 0.187 µM | 0.379 µM
O=C(NNc1nc2cc(F)c(F)cc2n2c(CN3CC4CNCC4C3)ccc12)c1cnccn1 (centres undefined) | 1.34 µM | 6.54 µM
OCCCNc1nccc(-c2c(-c3ccc(F)cc3)nn3cc(C(F)(F)F)ccc23)n1 | 6.72 µM | > 20.3 µM
CC(=O)Oc1ccccc1C(=O)Nc1ncc([N+](=O)[O-])s1 | 1.93 µM | 7.64 µM
C=C1C(=O)O[C@H]2[C@H]1CC/C(COC(=O)/C=C\C(=O)NCc1ccc(Cn3c(=O)sn(CCCC)c3=O)cc1)=C\CC[C@@]1(C)O[C@@H]21 | 0.348 µM | 1.39 µM
C[C@H]1[C@H](C)CC[C@]2(C(=O)Nc3ccc4ncccc4c3)CC[C@]3(C)C(=CC[C@@H]4[C@@]5(C)CCCNC(C)(C)[C@@H]5CC[C@]43C)[C@H]12 | 1.74 µM | 3.45 µM
Cn1cc(C2=C(c3cccc(Br)c3)C(=O)NC2=O)c2ccccc21 | 6.7 µM | > 25 µM
CCCCCOc1ccc(/C=N/Nc2cc(C)nc3ccc(Br)cc23)cc1 | 1.83 µM | 3.57 µM
COCC1(CO)C(=O)C2CCN1CC2 (centres undefined) | 18.4 µM | 40.3 µM
O=C1NC(=O)/C(=C\c2ccccc2)C2=C1CCCC2 | 10.1 µM | 30.2 µM
CCOC(=O)/C=C(/C)Sc1cc(O)c2ccccc2c1O | 3.55 µM | 12.1 µM
COc1ccc(-n2c(C)cc(-c3ccccc3)c2C)cc1 | 1.31 µM | 3.47 µM
Cc1cc(C)c(/C=C2\C(=O)Nc3ccc(NC(=O)CCCCCCC(=O)NO)cc32)[nH]1 | 0.367 µM | 22.6 µM
NC(=O)OCCn1cc(-c2nc(-c3c[nH]c4ncccc34)cs2)c2ccccc21 | 1.33 µM | 3.8 µM
CCOC(=O)c1c(NC(=O)c2cccc(C(F)(F)F)c2)sc2c(CN(C)C)c(O)ccc12 | 1.72 µM | 3.8 µM

SMILES | GI50 | TGI
N=C(N)c1ccc2nc(-c3cc(CC(=O)N[C@@H](CC(=O)O)C(=O)O)cc(-c4cc(S(N)(=O)=O)ccc4O)c3O)[nH]c2c1 | > 100 µM | > 100 µM
CCN(Cc1ccccc1C)c1ccc(CO)c(Cl)c1 | 0.0388 µM | 0.288 µM
O=C(Nc1ccc(-n2ccc3c(NC(=O)c4ccccc4)nccc32)cc1)Nc1ccc(Cl)c(Cl)c1 | 1.41 µM | 2.96 µM
O=C1NC(=O)C(c2cccc([N+](=O)[O-])c2)=C1Nc1cc(Cl)c(O)c(Cl)c1 | 12.3 µM | > 25 µM
COc1cc(OC)c(/C=C/c2c3ccccc3cc[n+]2C)c(OC)c1 | 0.266 µM | 2.66 µM
COc1cc(/C=C/C(=O)c2cc(OC)c(OC)c(OC)c2)ccc1OCc1ccc(F)cc1 | 2.84 µM | > 100 µM
O=C(CSc1nnc(-c2ccc(Cl)cc2)n1-c1ccccc1)Nc1cccc(F)c1 | 4.31 µM | > 100 µM
COc1ccc(O)c(C(=O)c2ccc(C(=O)N[C@H]3CCCNC[C@@H]3NC(=O)c3ccncc3)cc2)c1F | 0.552 µM | > 25 µM
CCn1c(=O)c2c(=O)c3c4c(oc3oc2c2ccccc21)C(=O)c1ccccc1C4=O | 0.199 µM | 0.701 µM
O=C(CSC1CCc2ccccc21)N/N=C/c1ccccc1O (centres undefined) | 2.73 µM | 13.9 µM
CN(CCO)c1ccc(N2Cc3ccccc3OC3=C2C(=O)c2c(O)ccc(O)c2C3=O)cn1 | 0.257 µM | 0.659 µM
O=S(=O)(Nc1ccc(F)cc1F)c1ccc(-c2cnc(C3CC3)o2)cc1 | 0.39 µM | 7.86 µM
COC(=O)[C@@H](C)C[C@H](Cc1ccccc1)NC(=O)c1csc([C@@H](C[C@H](C(C)C)N(C)C(=O)[C@@H](NC(=O)[C@H]2CCCCN2C)C2CCCCC2)OC(C)=O)n1 | 0.000311 µM and 0.0025 µM | > 25 µM
CCCOc1ccc2sc(NC(=O)OC)nc2c1 | 1.19 µM | > 100 µM
C1=C\COCc2cc(ccc2OCCN2CCCC2)Nc2nccc(n2)-c2cccc(c2)COC/1 | 1.32 µM | 3.79 µM
O[C@H](c1cc(C(F)(F)F)nc2c(C(F)(F)F)cccc12)[C@@H]1CCCCN1 | 1.72 µM | 4.19 µM
O=C(c1ccc(/C=C/c2n[nH]c3ccccc23)cc1)N1CCNCC1 | 2.45 µM and 9.15 µM | > 10 µM and 22.5 µM
CCN1C(=O)N(CC)C2C1NN=c1s/c(=C3\C(=O)N(CC(C)(C)C)c4ccccc43)c(=O)n12 (centres undefined) | 3.85 µM | 18.8 µM
